{
  "source": "patent US20070004653A1",
  "about": "“Stable lyophilized anthracycline glycosides” (priority 2005, published 2007)",
  "key": {"[1]": {"assay": "Stability tests of stabilized Idarubicin HCl, 1% w/v aqueous solution with NH4OAc or NH4OAc + AcOH", "format": "physicochemical", "protocol": "Starting product was idarubicin hydrochloride, 1% w/v aqueous solution, the analysis of which is shown in the data reported at t=0. 3% mol of NH4OAc with respect to idarubicin hydrochloride was added to the solution at t=0 and the solution was incubated at 4° C. for the indicated time.\nStarting product was idarubicin hydrochloride, 1% w/v aqueous solution, the analysis of which is shown in the data reported at t=0. 3% mol of NH4OAc with respect to idarubicin hydrochloride was added to the solution at t=0 and the solution was incubated at 20° C. for the indicated time.\n(§1) Starting product was idarubicin hydrochloride, 1% w/v aqueous solution, the analysis of which is shown in the data reported at t=0. 1% mol of NH4OAc with respect to idarubicin hydrochloride was added to the solution at t=0 and the solution was incubated at 4° C. for the indicated time.\n(§2) Starting product was idarubicin hydrochloride, 1% w/v aqueous solution, the analysis of which is shown in the data reported at t=0. 1% mol of NH4OAc with respect to idarubicin hydrochloride was added to the solution at t=0 and the solution was incubated at 20° C. for the indicated time.\nas §1, with “t=0. 0.5%” for “t=0. 1%”, “NH4OAc and 0.5% mol of AcOH” for “NH4OAc”, “hydrochloride were” for “hydrochloride was”\nas §2, with “t=0. 0.5%” for “t=0. 1%”, “NH4OAc and 0.5% mol of AcOH” for “NH4OAc”, “hydrochloride were” for “hydrochloride was”, “indicated time as shown in table 30.” for “indicated time.”\nas §1, with “t=0. 1.5%” for “t=0. 1%”, “NH4OAc and 1.5% mol of AcOH” for “NH4OAc”, “hydrochloride were” for “hydrochloride was”\nas §2, with “t=0. 1.5%” for “t=0. 1%”, “NH4OAc and 1.5% mol of AcOH” for “NH4OAc”, “hydrochloride were” for “hydrochloride was”"}, "[2]": {"assay": "Preparation of stable lyophilized anthracycline glycoside hydrochlorides: aglycone and dimer in the lyophilized product", "format": "physicochemical", "conditions": "frozen and lyophilized", "protocol": "(§3) Idarubicin hydrochloride (500 mg) was dissolved in water (50 ml) and acetic acid and ammonium acetate (both 1.5% molar amount with respect to the molar amount of idarubicin hydrochloride) were added. The solution was frozen and lyophilized.\nas §3, with “Charcoal was then added (100 g) and the solution was stirred for two hours. After that, the suspension was filtered through 0.4 micron membrane and then the” for “The”\nDoxorubicin hydrochloride (500 mg) was dissolved in water (20 ml) and the pH corrected to 3.5 with acetic acid at room temperature. The solution was then warmed to 60° C. for 2 hours and then ammonium acetate (1.5% molar amount with respect to the molar amount of doxorubicin hydrochloride) was added. Then the solution was quickly frozen and lyophilized.\n(§4) Epirubicin hydrochloride (1550 mg) was dissolved in water (100 ml) and the pH corrected to 3.2-3.8 with hydrochloric acid at room temperature. The solution was then warmed to 60° C.-65° C. for 1 hours and then the solution was cooled to 50-60° C. At the same time, the pH was corrected to 4.5-5.0 with sodium hydroxide. Then the solution was quickly frozen and lyophilized.\nIdarubicin hydrochloride (5.0 g) was dissolved in water (500 ml). Then 58 microlitres of AMBERLITE® IRA-67 (1.6M) acetate (meaning 1.0% molar amount with respect to the molar amount of idarubicin hydrochloride) and 4.5 mg of acetic acid (meaning 0.8% molar amount with respect to the molar amount of idarubicin hydrochloride) were added. The suspension was slurried for two hours, then filtered, frozen and lyophilized.\nDoxorubicin hydrochloride (5.0 g) was dissolved in water (200 ml) and the pH corrected to 4.6-4.8 with IN hydrochloric acid at room temperature. Then 80 microlitres of AMBERLITE® IRA-67 (1.6M) acetate (meaning 1.5% molar amount with respect to the molar amount of doxorubicin hydrochloride) was added. The solution was then filtered, frozen and lyophilized.\nas §4, with “was” for “was then”, “hour” for “hours”, “AMBERLITE® IRA-67 free base.” for “sodium hydroxide.”, “filtered, frozen,” for “frozen”"}, "[3]": {"conditions": "cited from earlier work"}, "[4]": {"conditions": "cited from earlier work", "remark": "listed apart in the source"}, "[5]": {"conditions": "NH4OAc 0.5% mol + AcOH 0.5% mol, pH 5.08, 4° C., 25 hr"}, "[6]": {"conditions": "NH4OAc 0.5% mol + AcOH 0.5% mol, pH 5.08, 4° C., 95 hr"}, "[7]": {"conditions": "NH4OAc 0.5% mol + AcOH 0.5% mol, pH 5.08, 20° C., 19 hr"}, "[8]": {"conditions": "NH4OAc 0.5% mol + AcOH 0.5% mol, pH 5.08, 20° C., 90 hr"}, "[9]": {"conditions": "NH4OAc 1% mol, pH 5.92, 4° C., 24 hr"}, "[10]": {"conditions": "NH4OAc 1% mol, pH 5.92, 20° C., 18 hr"}, "[11]": {"conditions": "NH4OAc 1% mol, pH 5.92, 20° C., 313 hr"}, "[12]": {"conditions": "NH4OAc 1.5% mol + AcOH 1.5% mol, pH 4.94, 4° C., 314 hr"}, "[13]": {"conditions": "NH4OAc 1.5% mol + AcOH 1.5% mol, pH 4.94, 20° C., 21 hr"}, "[14]": {"conditions": "NH4OAc 1.5% mol + AcOH 1.5% mol, pH 4.94, 20° C., 68 hr"}, "[15]": {"conditions": "NH4OAc 1.5% mol + AcOH 1.5% mol, pH 4.94, 20° C., 139 hr"}, "[16]": {"conditions": "NH4OAc 1.5% mol + AcOH 1.5% mol, pH 4.94, 20° C., 315 hr"}, "[17]": {"conditions": "NH4OAc 3% mol, pH 5.94, 4° C., 30 hr"}, "[18]": {"conditions": "NH4OAc 3% mol, pH 5.94, 4° C., 131 hr"}, "[19]": {"conditions": "NH4OAc 3% mol, pH 5.94, 20° C., 26 hr"}, "[20]": {"conditions": "NH4OAc 3% mol, pH 5.94, 20° C., 130 hr"}},
  "note": "Read-outs that look alike come from different tables or passages of the source.",
  "data": [
    {"smiles": "CC(=O)[C@]1(O)Cc2c(O)c3c(c(O)c2[C@@H](O[C@H]2C[C@@H](N)[C@H](O)C(C)O2)C1)C(=O)c1ccccc1C3=O.Cl", "note": "(stereo partly shown) [Idarubicin HCl, Idarubicin hydrochloride]", "values": [
      {"measurement": "aglycone", "setting": "[1]; [5]", "result": 0.59, "unit": "%"},
      {"measurement": "bis-anhydro", "setting": "[1]; [5]", "result": 0.04, "unit": "%"},
      {"measurement": "aglycone", "setting": "[1]; [6]", "result": 0.59, "unit": "%"},
      {"measurement": "bis-anhydro", "setting": "[1]; [6]", "result": 0.05, "unit": "%"},
      {"measurement": "aglycone", "setting": "[1]; NH4OAc 0.5% mol + AcOH 0.5% mol, pH 5.08, 4° C., t = 0", "result": 0.59, "unit": "%"},
      {"measurement": "aglycone", "setting": "[1]; [7]", "result": 0.59, "unit": "%"},
      {"measurement": "bis-anhydro", "setting": "[1]; [7]", "result": 0.07, "unit": "%"},
      {"measurement": "aglycone", "setting": "[1]; [8]", "result": 0.59, "unit": "%"},
      {"measurement": "bis-anhydro", "setting": "[1]; [8]", "result": 0.18, "unit": "%"},
      {"measurement": "aglycone", "setting": "[1]; NH4OAc 0.5% mol + AcOH 0.5% mol, pH 5.08, 20° C., t = 0", "result": 0.59, "unit": "%"},
      {"measurement": "% aglycone", "setting": "[1]; [9]", "result": 0.59, "unit": "%"},
      {"measurement": "% bis-anhydro", "setting": "[1]; [9]", "result": 0.05, "unit": "%"},
      {"measurement": "% aglycone", "setting": "[1]; NH4OAc 1% mol, pH 5.92, 4° C., t = 0", "result": 0.59, "unit": "%"},
      {"measurement": "% aglycone", "setting": "[1]; [10]", "result": 0.59, "unit": "%"},
      {"measurement": "% bis-anhydro", "setting": "[1]; [10]", "result": 0.20, "unit": "%"},
      {"measurement": "% aglycone", "setting": "[1]; [11]", "result": 0.60, "unit": "%"},
      {"measurement": "% bis-anhydro", "setting": "[1]; [11]", "result": 4.46, "unit": "%"},
      {"measurement": "% aglycone", "setting": "[1]; NH4OAc 1% mol, pH 5.92, 20° C., t = 0", "result": 0.59, "unit": "%"},
      {"measurement": "aglycone", "setting": "[1]; NH4OAc 1.5% mol + AcOH 1.5% mol, pH 4.94, 4° C., 26 hr", "result": 0.59, "unit": "%"},
      {"measurement": "aglycone", "setting": "[1]; NH4OAc 1.5% mol + AcOH 1.5% mol, pH 4.94, 4° C., 97 hr", "result": 0.59, "unit": "%"},
      {"measurement": "aglycone", "setting": "[1]; [12]", "result": 0.59, "unit": "%"},
      {"measurement": "bis-anhydro", "setting": "[1]; [12]", "result": 0.06, "unit": "%"},
      {"measurement": "aglycone", "setting": "[1]; NH4OAc 1.5% mol + AcOH 1.5% mol, pH 4.94, 4° C., t = 0", "result": 0.59, "unit": "%"},
      {"measurement": "aglycone", "setting": "[1]; [13]", "result": 0.59, "unit": "%"},
      {"measurement": "bis-anhydro", "setting": "[1]; [13]", "result": 0.06, "unit": "%"},
      {"measurement": "aglycone", "setting": "[1]; [14]", "result": 0.59, "unit": "%"},
      {"measurement": "bis-anhydro", "setting": "[1]; [14]", "result": 0.16, "unit": "%"},
      {"measurement": "aglycone", "setting": "[1]; [15]", "result": 0.59, "unit": "%"},
      {"measurement": "bis-anhydro", "setting": "[1]; [15]", "result": 0.75, "unit": "%"},
      {"measurement": "aglycone", "setting": "[1]; [16]", "result": 0.6, "unit": "%"},
      {"measurement": "bis-anhydro", "setting": "[1]; [16]", "result": 6.21, "unit": "%"},
      {"measurement": "aglycone", "setting": "[1]; NH4OAc 1.5% mol + AcOH 1.5% mol, pH 4.94, 20° C., t = 0", "result": 0.59, "unit": "%"},
      {"measurement": "% aglycone", "setting": "[1]; [17]", "result": 0.59, "unit": "%"},
      {"measurement": "% bis-anhydro", "setting": "[1]; [17]", "result": 0.09, "unit": "%"},
      {"measurement": "% aglycone", "setting": "[1]; [18]", "result": 0.59, "unit": "%"},
      {"measurement": "% bis-anhydro", "setting": "[1]; [18]", "result": 0.25, "unit": "%"},
      {"measurement": "% aglycone", "setting": "[1]; NH4OAc 3% mol, pH 5.94, 4° C., t = 0", "result": 0.59, "unit": "%"},
      {"measurement": "% aglycone", "setting": "[1]; [19]", "result": 0.59, "unit": "%"},
      {"measurement": "% bis-anhydro", "setting": "[1]; [19]", "result": 0.50, "unit": "%"},
      {"measurement": "% aglycone", "setting": "[1]; [20]", "result": 0.59, "unit": "%"},
      {"measurement": "% bis-anhydro", "setting": "[1]; [20]", "result": 1.39, "unit": "%"},
      {"measurement": "% aglycone", "setting": "[1]; NH4OAc 3% mol, pH 5.94, 20° C., t = 0", "result": 0.59, "unit": "%"},
      {"measurement": "aglycone contained in lyophilized product", "setting": "[2]; Example 38: acetic acid and ammonium acetate, both 1.5% molar", "result": 0.12, "unit": "%"},
      {"measurement": "aglycone contained in lyophilized product", "setting": "[2]; Example 39: acetic acid and ammonium acetate, both 1.5% molar, charcoal, filtered", "result": 0.02, "unit": "%"},
      {"measurement": "aglycone contained in lyophilized product", "setting": "[2]; Example 42: AMBERLITE IRA-67 acetate 1.0% molar and acetic acid 0.8% molar, slurried two hours, filtered", "result": 0.09, "unit": "%"},
      {"measurement": "pH in a 0.5% w/v solution in water", "setting": "[3]", "result": "5.0-6.5"},
      {"measurement": "solubility", "setting": "[4]; in acetone, chloroform, and methylene chloride", "result": "practically insoluble"},
      {"measurement": "solubility", "setting": "[4]; in water, methanol, and other polar solvents like dimethylformamide", "result": "soluble"},
      {"measurement": "solubility", "setting": "[4]; in water", "result": "not very soluble"}
    ]}
  ]
}
